# In publication PMC6397180 (Scientific Reports, 2019):
# “And” between values parts separate entries of the source, which are not always exact repeats. Equal entries are not always repeated.
# Columns and labels:
# [1] = tested on: interaction of Tat with HSPGs on TZM-bl cells; assay: Inhibition of transcellular transactivation by HSPG competitive antagonists; format: cell-based, human; conditions: TZM-bl cells exposed to Tat-B-WT produced in HeLa cells
# Method: HeLa cells were seeded in 6-well plates at 7.5 × 10^5 cells per well and transfected with 2.5 μg of Tat expression plasmid DNA (Lipofectamine 3000, Invitrogen). After 6 h, the media was replaced with DMEM/10% FBS. Next day, TZM-bl reporter cells were seeded in a 24-well plate, at 1.5 × 10^5 cells per well. Similarly, C20 microglial cells were seeded in a 12-well plate, at 3 × 10^5 cells per well. After allowing 5–6 h for cell attachment, supernatant from the tat-transfected HeLa cells was collected, which was centrifuged at 500 × g for 10 minutes to remove debris and dead cells. Importantly, at this step and all others involving handling of Tat-containing media, siliconized tubes and tips were used to minimize the adsorption of Tat to surfaces. Tat-transfected HeLa supernatants were used to replace either TZM-bl media (400 μL) or C20 media (800 μL), and the cells incubated for 12 h (C20) or 24 h (TZM-bl).
# TZM-bl cell lysates were harvested and stored at −80 °C until luciferase activity was measured. Frozen TZM-bl cell lysates were thawed on ice for 30 minutes, centrifuged at 14,000 × g for 2 minutes, and the protein concentration in the supernatants measured by BCA protein assay. […] The side of the plate was gently tapped and each sample was immediately assayed for luciferase activity using a plate-reader, measuring each sample in Relative Light Units (RLU) (PerkinElmer VICTOR-2).
# 293T cells = assay: Flow cytometry of labeled CPP uptake; format: cell-based, human; conditions: for effect of soluble heparin on CPP uptake: 293T cells incubated with labeled CPPs and increasing concentrations of soluble heparin; for decrease of CPP uptake at 4 °C compared with 37 °C: 2 μM CPP, 4 °C (10 min pre-incubation) vs 37 °C
# Method: 293T cells were plated in 12-well plates at 2.5 × 10^5 cells per well, to achieve approximately 70% - 80% confluence by the next day. Thirty minutes before the experiment, cell medium was changed to low-serum DMEM with 1% Pen-Strep. Cells were washed once with PBS, treated with Tat-CPP in low-serum DMEM, and placed in either a tissue-culture incubator (37 °C/5% CO2) or a refrigerator (4 °C)(samples treated at 4 °C were pre-incubated in refrigerator for 10 minutes before CPP treatment). Cells were gently washed twice with PBS (w/10%FBS), then treated with 300 µl of pre-warmed 0.05% trypsin for 5 min, to detach cells and enzymatically digest surface-bound Tat-CPP. Cells were resuspended in 1 ml PBS (with 10% FBS and 2 mM EDTA), and peptide uptake assessed by flow cytometry (FACScalibur). Live cells were gated using forward-scatter and side-scatter ratio, then interrogated >10,000 live-cell events each for fluorescence signal emission at 488 nm. Data was analyzed using FlowJo software v9.3.3 (FlowJo LLC). To adjust for differences in instrument settings and voltage adjustments between experiments we transformed the raw MFI values within each experiment into values proportional to the greatest MFI reading in that particular experiment. Heparinase enzymes were used to pre-treat cells by combination of Heparinase I and III at 17 IU and 1 IU, respectively, per mL of plain DMEM. Cells were treated with enzymes for 2 h in an 37 °C, then washed with PBS and exposed to CPPs as above.
# [2] = tested on: PMA-differentiated THP-1 cells; assay: Confocal microscopy of labeled CPP uptake; format: cell-based; conditions: 1 μM peptide, 37 °C, 30 minutes, trypsin to strip surface-bound CPP, fluorescence 488 nm
# [3] = tested on: primary human neuron-astrocyte co-cultures; assay: Treatment of neurons with spent media from Tat-exposed microglia; format: cell-based; conditions: co-cultures treated 30 h with 200 µl spent media from Tat-exposed microglia, neurotubulin staining
# Method: (§1) C20 microglia were exposed for 24 h, to equivalent inputs of HeLa cell media containing Tat protein (Tat-B*, Tat-B* R57S, Tat-C or Tat-C S57R or empty vector) as described above for cytokine expression. As a control, spent media of HeLa cells transfected with an empty pcDNA 3.1 construct was used. Approximately 50, 000 cells containing a mixture of human fetal neurons and glia plated on 35 mm MatTek plates were treated with 200 µl of spent media from Tat-exposed microglial cultures for 30 h.
# For the purpose of imaging of neurons and quantifying axonal/dendritic lengths, neurons treated as above were fixed with 4% PFA for 15 min and washed with 1x PBS. Cells were permeabilized with 0.1% Triton X-100 for 3 minutes and washed as before. Non-specific sites were blocked with 1X SBS buffer (50 mM EDTA, 0.01% Fish Gelatin, 0.1 g BSA, 1% Horse serum in PBS) for 1 h at room temperature and the cells washed. Cells were stained with anti-neurotubulin antibodies, anti-GFAP antibodies and DAPI to stain neurons, glial cells and nuclei respectively. Neuronal images were captured using a Leica Confocal TCS SP5 microscope (Leica Microsystems, Bannockburn, IL). Axonal/dendritic lengths were quantified using Volocity 6.3 software.
# C20 microglial cells = assay: TNFα protein in supernatants of Tat-treated microglia (Luminex cytokine detection assay); format: cell-based, human; conditions: C20 microglia exposed 24 h to equivalent inputs of Tat-containing HeLa media
# Method: as §1
# [4] = tested on: h-Hu_C20 human microglial cells; assay: qRT-PCR of cytokine gene expression in C20 cells exposed to Tat; format: cell-based; conditions: equivalent levels of Tat proteins applied; compared with position 57 variant of the same clade
# Method: We transfected 2 × 10^6 HeLa cells with pEGFP, pcDNA 3.1 and the plasmids expressing the four Tat variants. At 24 hours post transfection, media were collected and Tat ELISA performed to determine the amount of Tat present. C20 microglia (2 × 10^6) were incubated with equal amounts of Tat media for 24 h. PMA (5 ng) or LPS (5 ng) were also included in separate wells as controls. C20 cells were washed with PBS, treated with trypsin, pelleted by centrifugation at 500 × g for 10 minutes, and total cell RNA isolated using an RNeasy Kit (Qiagen). RNA was reverse transcribed in a first-strand cDNA synthesis reaction (GoScript, Promega), using oligo dT primers. The cDNA was diluted to 100 ng per 3 μL in each reaction well, and combined with 2x Taqman Gene Expression Master Mix (ThermoFisher) and Taqman Gene Expression Assay primer-probes: GAPDH (Hs02758991_g1), IL6 (Hs00985639_m1), IL8 (Hs00174103_m1), IL-1β (Hs00174097_m1) or CXCL1 (Hs00236937_m1). Each sample was assayed in triplicate on a 384-well plate, and run under standard qRT-PCR cycling conditions on a 7900HT instrument (ABI).
# [5] = tested on: LTR-driven luciferase reporter gene in TZM-bl cells; format: cell-based, human
molecule,measurement,setting,value
Cc1ccc(C(=O)Nc2ccc(S(=O)(=O)O)c3cc(S(=O)(=O)O)cc(S(=O)(=O)O)c23)cc1NC(=O)c1cccc(NC(=O)Nc2cccc(C(=O)Nc3cc(C(=O)Nc4ccc(S(=O)(=O)O)c5cc(S(=O)(=O)O)cc(S(=O)(=O)O)c45)ccc3C)c2)c1 [suramin],concentration sufficient to diminish transcellular transactivation of extracellular Tat to near background levels,[1],100 µg/mL
"GRKKRRQRRR [CPP-R57, Tat CPP decapeptide (residues 48–57) of HIV-1B, N-terminal HiLyte Fluor 488 tag]",effect of soluble heparin on CPP uptake,293T cells,dose-dependent inhibition of uptake
same,decrease of CPP uptake at 4 °C compared with 37 °C,"293T cells; 293T cells, flow cytometry",~ 75%
same,CPP-R57 uptake relative to CPP-S57,"293T cells; 293T cells, flow cytometry, 2 μM peptide, n = 4",3–4 fold
same,internalization of labeled peptide (confocal microscopy),[2],higher amount of labeled peptide
"GRKKRRQRRS [CPP-S57, Tat CPP decapeptide (residues 48–57) of HIV-1C, N-terminal HiLyte Fluor 488 tag]",uptake in dose response,"293T cells; 293T and THP1 cells, increasing concentrations of CPP, flow cytometry",reduced uptake
same,effect of soluble heparin on CPP uptake,293T cells,dose-dependent inhibition of uptake
same,decrease of CPP uptake at 4 °C compared with 37 °C,"293T cells; 293T cells, flow cytometry",50% and ~ 50%
Tat-B*: Tat-B variant with R7N and K12N mutations and C-terminal myc tag,appearance of neuronal processes (dendrites and axons),[3],shorter and thinner
same,TNFα protein levels in supernatants of Tat-treated microglia,C20 microglial cells,19.2 ng/mL
same,"inflammatory cytokine gene transcripts IL-6, IL-8, IL-1β and CXCL1",[4],higher levels
heparin,concentration sufficient to diminish transcellular transactivation of extracellular Tat to near background levels,[1],10 µg/mL
"Tat-B-49AAA51: Tat-B with triple alanine substitution in residues 49-RKK-51 (protein, UniProt P04608 1-86, looked up, variant R49A K50A K51A) Protein Tat: MEPVDPRLEPWKHPGSQPKTACTNCYCKKCCFHCQVCFITKALGISYGAAARRQRRRAHQNSQTHQASLSKQPTSQPRGDPTGPKE",transcriptional activity relative to TatB-WT,[5],10%
same,decrease of luciferase output upon direct transfection,"[5]; TZM-bl cells directly transfected, relative to Tat-B-WT",approximately 90%
